# Source: patent US8846019B2, “Use of protoberberines as an active substance regulating the pilosebaceous unit” (Sederma, priority 2005, dated 2014)
# Like-named read-outs stand apart in the source and are kept apart here. Marks after values point to notes of the source that are not given here.
# Columns and labels:
# Assay type in all cases: cell-based
# keratinocytes [1] = experiment: Variation of the incorporation of BrdU, keratinocytes with palmatine or berberine; conditions: 48 hours of contact
# keratinocytes [2] = experiment: Toxicity evaluation on keratinocytes, Hoescht (number of cells); conditions: for Hoescht % Change: percent of negative controle
# fibroblasts [3] = experiment: Toxicity evaluation on fibroblasts, Hoescht (number of cells); conditions: for Hoescht % Change: percent of negative controle
# keratinocytes [4] = experiment: Toxicity evaluation on keratinocytes, MTT (mitochondrial respiration); conditions: for MTT % Change: percent of negative controle
# fibroblasts [5] = experiment: Toxicity evaluation on fibroblasts, MTT (mitochondrial respiration); conditions: for MTT % Change: percent of negative controle
# [6] = system: Normal human keratinocytes (KHN); experiment: Antiproliferative effect: BrdU incorporation by human keratinocytes (ELISA); conditions: for % incorporation of BrdU/control: 48 hours, 10% FCS; for effect on proliferation of keratinocytes (in words): dose-dependent mitotic decrease
# Experimental: This test is based on the determination of the cellular growth rate. Cells are cultivated in complete medium enriched in FCS (10%) so as to obtain a population in active growth, Mitotic activity is assessed by the incorporation of a nucleotide base analog in DNA during replication: […] replaces thymidine. With a product slowing mitosis, a decrease in BrdU incorporation in cell DNA is to be expected.
# Normal human keratinocytes (KHN) cultured with 10% FCS were incubated in the presence or absence of palmatine, or chelidonine at various concentrations for 48 hours.
# After the first 24 hours, BrdU was added to the culture medium and the mitosis marker was allowed to act for 24 hours.
# After 48 hours, the cells were lysed and the BrdU incorporation rate was determined by an ELISA method.
# [7] = keratinocytes, at the tested concentrations
# [8] = keratinocytes, concentration 3.10^E−4%
# [9] = keratinocytes, concentration 10^E−3%
# [10] = fibroblasts, at the tested concentrations
# [11] = fibroblasts, concentration 3.10^E−4%
# [12] = fibroblasts, concentration 9.10^E−4%
structure (smiles),measurement,setting,value
"COc1ccc2cc3[n+](cc2c1OC)CCc1cc2c(cc1-3)OCO2 [BERBERINE, berberine]",% Change of the incorporation of BrdU,keratinocytes [1]; concentration 3.10^E−4%,−36%**
same,% Change of the incorporation of BrdU,keratinocytes [1]; concentration 10^E−3%,−65%**
same,effect on the number of keratinocytes (in words),keratinocytes [2],a decrease on the number of keratinocytes
same,effect on the number of fibroblasts (in words),fibroblasts [3],a decrease on the number of fibroblasts
same,change of the mitochondrial respiration (in words),keratinocytes [4],engenders a change of the mitochondrial respiration
same,toxicity on keratinocytes (conclusion in words),keratinocytes [4],toxic effect
same,change of the mitochondrial respiration (in words),fibroblasts [5],engenders a change of the mitochondrial respiration
same,toxicity on fibroblasts (conclusion in words),fibroblasts [5],toxic effect on fibroblasts
"CN1Cc2c(ccc3c2OCO3)[C@@H]2[C@H]1c1cc3c(cc1C[C@@H]2O)OCO3 [Chelidonine, chelidonine]",% incorporation of BrdU/control,[6]; concentration 3 × 10E−4%,−41%
same,% incorporation of BrdU/control,[6]; concentration 10E−4%,−31%
same,% incorporation of BrdU/control,[6]; concentration 10 × 10E−4%,−74%
same,effect on proliferation of keratinocytes (in words),[6],inhibit the proliferation of keratinocytes
COc1cc2c(cc1OC)-c1cc3ccc(OC)c(OC)c3c[n+]1CC2 [palmatine],% Change of the incorporation of BrdU,keratinocytes [1]; concentration 3.10^E−4%,−16%**
same,% Change of the incorporation of BrdU,keratinocytes [1]; concentration 10^E−3%,−21%**
same,effect on the number of keratinocytes (in words),keratinocytes [2]; [7],does not act on the number of keratinocytes
same,Hoescht % Change,keratinocytes [2]; [8],−1 dns %
same,Hoescht % Change,keratinocytes [2]; [9],−2 dns %
same,effect on the number of fibroblasts (in words),fibroblasts [3]; [10],does not act on the number of fibroblasts
same,Hoescht % Change,fibroblasts [3]; [11],1dns %
same,Hoescht % Change,fibroblasts [3]; [12],−1 dns %
same,change of the mitochondrial respiration (in words),keratinocytes [4]; [7],does not engender a change of the mitochondrial respiration
same,MTT % Change,keratinocytes [4]; [8],7 dns %
same,MTT % Change,keratinocytes [4]; [9],5 dns %
same,toxicity on keratinocytes (conclusion in words),"keratinocytes [4]; keratinocytes, with respect to the different results",not toxic
same,toxicity on fibroblasts (conclusion in words),"fibroblasts [5]; fibroblasts, MTT and Hoescht",not toxic on fibroblasts
same,change of the mitochondrial respiration (in words),fibroblasts [5]; [10],does not engender a change of the mitochondrial respiration
same,MTT % Change,fibroblasts [5]; [11],0 dns %
same,MTT % Change,fibroblasts [5]; [12],−9 dns %
same,% incorporation of BrdU/control,[6]; concentration 3 × 10E−4%,−35%
same,% incorporation of BrdU/control,[6]; concentration 10E−4%,−21%
same,% incorporation of BrdU/control,[6]; concentration 10 × 10E−4%,−58%
same,effect on proliferation of keratinocytes (in words),[6],inhibit the proliferation of keratinocytes
